Results as given in patent US8470844B2, “Imidazoacridinone derivative compounds and methods for their use” (Technion Research & Development Foundation Limited, priority 2008, dated 2013).

How the values were obtained:
A549 cells = assay: MTT cytotoxicity assay, parental A549 cells; format: cell-based, Human; settings: 96 hours exposure, mean of at least three experiments
Description: (§1) Tissue culture: Human non-small cell lung cancer A549 cells and T-cell leukemia CCRF-CEM cells were grown under monolayer conditions or up to a maximal density of 10^6 cells/ml (for CCRF-CEM cells) in RPMI-1640 medium (GIBCO) supplemented with 10% fetal calf serum, 2 mM glutamine, 100 μg/ml penicillin and 100 μg/ml streptomycin (Biological Industries, Beth-Haemek, Israel) in a humid atmosphere of 5% CO2. Drug resistant A549/K1.5 cells with ABCG2 overexpression were maintained under a continuous drug selection with 1.5 μM C-1305. Bram, E. E., et al., (2007) Biochem Pharmacol 74(1), 41-53.
(§2) Cytotoxicity and growth inhibition assays: The cytotoxic activity of the various IA antitumor agents was determined using the MTT assay. Poindessous, V., et al., (2003) Clin Cancer Res 9(7), 2817-2825.
(§3) Exponentially growing cells were seeded at 5×10^3 cells/well in 24-well plates (2 ml medium/well). Following an overnight incubation, cells were exposed to different drug concentrations for 96 hours. Cellular viability was determined by adding the tetrazolium salt MTT for 4 h at 37° C., followed by solubilization of the intracellular precipitated formazan in 1 ml DMSO and absorbance was determined by a microplate reader (ASYS Hitech GmbH, Austria). Drug concentrations required to inhibit cell growth by 50% (IC50) compared with untreated controls were determined from the curves of survival versus drug concentrations using the SlideWrite software (Advanced Graphics Software, Inc., Encinitas, Calif.). Resistance folds (RF) were calculated by dividing the IC50 value of the resistant cells by that of the parental cell line. Values presented are means of at least three independent experiments, each performed in duplicates.

A549/K1.5 cells = assay: MTT cytotoxicity assay, ABCG2-overexpressing A549/K1.5 cells; format: cell-based, Human; settings: for resistance of A549/K1.5 cells (in words): versus parental A549 cells
Description: as §1, §2, §3
Quantitative evaluation of ABCG2 interaction with various IA derivatives: The extent of ABCG2-mediated resistance was expressed using the Resistance Fold (RF) parameter representing the ratio between the IC50 values of the resistant cells and parental cells. Likewise, ABCG2-dependent differential accumulation of IAs in ABCG2-overexpressing A549/K1.5 cells was compared using the ratio of IA accumulation in the presence or absence of the potent ABCG2 inhibitor FTC. This was termed the FTC-dependent Accumulation Fold (AF) and was determined for each IA at a constant IA concentration of 10 μM.

ABCG2 (A549/K1.5 cells) = target: T1, ABCG2 (A549/K1.5 cells) (Homo sapiens, UniProt Q9UNQ0); assay: Fluorescence microscopy of nuclear accumulation of IAs in A549/K1.5 cells; format: cell-based; settings: 10 μM IA, 1 hr
T1 construct: Drug resistant A549/K1.5 cells with ABCG2 overexpression were maintained under a continuous drug selection with 1.5 μM C-1305; endogenous in cells; host or cells: A549/K1.5 (C-1305-selected subline of human non-small cell lung cancer A549)
T1 sequence (Q9UNQ0 1-655): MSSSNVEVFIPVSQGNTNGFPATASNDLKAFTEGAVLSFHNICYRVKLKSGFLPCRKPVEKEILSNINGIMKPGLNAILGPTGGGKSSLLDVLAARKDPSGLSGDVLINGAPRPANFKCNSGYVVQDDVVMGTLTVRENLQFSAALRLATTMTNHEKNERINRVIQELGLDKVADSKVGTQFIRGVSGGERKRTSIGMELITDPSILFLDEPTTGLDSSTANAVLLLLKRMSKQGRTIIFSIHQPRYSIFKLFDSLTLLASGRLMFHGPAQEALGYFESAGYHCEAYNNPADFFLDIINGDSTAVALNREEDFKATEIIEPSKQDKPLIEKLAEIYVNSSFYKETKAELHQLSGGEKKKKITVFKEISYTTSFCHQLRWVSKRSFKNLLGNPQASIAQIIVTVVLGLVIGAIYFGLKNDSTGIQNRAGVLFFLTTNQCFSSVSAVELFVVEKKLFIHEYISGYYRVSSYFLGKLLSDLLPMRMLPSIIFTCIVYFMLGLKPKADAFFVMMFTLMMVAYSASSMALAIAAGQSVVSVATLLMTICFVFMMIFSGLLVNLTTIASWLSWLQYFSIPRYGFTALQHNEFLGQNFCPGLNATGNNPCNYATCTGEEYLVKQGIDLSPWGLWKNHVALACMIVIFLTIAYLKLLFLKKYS
Description: In immunofluorescence microscopy of plasma membrane targeting of ABCG2 and nuclear accumulation of IAs, cells (1×10^4/well) were seeded in 24-well plates (1 ml medium/well) and incubated for 2 days, following which some wells were supplemented with 10 μM IA-containing medium±5 μM FTC and incubated for 1 h at 37° C. Cells were then washed twice with ice-cold PBS containing 0.1% BSA and blocked for 10 min at 4° C. with PBS containing 5% BSA. Cells were then washed once with ice-cold PBS containing 0.1% BSA and incubated for 30 min at 4° C. with a Phycoerythrin-conjugated, affinity-purified 5D3 mouse anti-human ABCG2 monoclonal antibody (1:100; eBioscience). Unspecific fluorescence was determined using cells that were incubated only with a secondary Phycoerythrin (PE)-conjugated goat anti-mouse IgG (1:200; Jackson Immunoresearch Labs, West Grove, Pa.). Cells were then washed twice and subjected to fluorescence microscopy using a DMIRE2 fluorescence microscope equipped with a DC300FX camera (Leica Microsystems, Wetzlar, Germany).
In order to exclude the possibility that differential subcellular accumulation of IA derivatives is the basis of the observed difference in cytotoxicity and cellular fluorescence, A549/K1.5 cells were incubated with 10 μM of selected IA derivatives from both group A and B in the presence or absence of FTC and subjected to fluorescence microscopy.

With CCN(CC)CCNc1ccc2ncn3c4ccc(O)cc4c(=O)c1c23 [C-1311] the IC50 (A549 cells) was 0.27 ± 0.012 µM, the IC50 (A549/K1.5 cells; ABCG2-overexpressing A549/K1.5 cells, 96 hours exposure, MTT) was 2.34 ± 0.05 µM and the “RF (resistance fold)” value (A549/K1.5 cells; IC50 of A549/K1.5 cells divided by IC50 of parental A549 cells) was 8.70. For the same compound, the “resistance of A549/K1.5 cells (in words)” value (A549/K1.5 cells) was “prominent resistance”, the “resistance of A549/K1.5 cells (in words)” value (A549/K1.5 cells; listed as Symadex) was “marked drug resistance” and the “intracellular accumulation (fluorescence microscopy)” value (ABCG2 (A549/K1.5 cells); absence of FTC) was “no apparent intracellular accumulation”. For the same compound, the “nuclear accumulation (fluorescence microscopy)” value (ABCG2 (A549/K1.5 cells); presence of 5 μM FTC) was “marked restoration of nuclear accumulation”.
